Data reported in ChEMBL document CHEMBL3885881, “DrugMatrix”.

Species on record: Rattus norvegicus
Experiment: DrugMatrix - Regimen: Daily Repeat
Format: toxicity, organism-based, Sprague-Dawley
Design: regimen Daily Repeat, gender Male, age 6-8 weeks
Settings: in vivo, iv, […], vehicle 100 % SALINE; for ALANINE AMINOTRANSFERASE / ALBUMIN / ALKALINE PHOSPHATASE / ASPARTATE AMINOTRANSFERASE / BLOOD UREA NITROGEN / CARBON DIOXIDE / CHLORIDE / CHOLESTEROL / CREATINE PHOSPHOKINASE / CREATININE / GLUCOSE / LACTATE DEHYDROGENASE / LIPASE / PHOSPHORUS / POTASSIUM / SODIUM / TOTAL BILIRUBIN / TOTAL PROTEIN / URIC ACID: tissue Plasma; for ABSOLUTE BASOPHIL / ABSOLUTE EOSINOPHIL / ABSOLUTE LYMPHOCYTE / ABSOLUTE MONOCYTE / ABSOLUTE SEGMENTED NEUTROPHIL / BASOPHIL / EOSINOPHIL / ERYTHROCYTE COUNT / HEMATOCRIT / HEMOGLOBIN / LEUKOCYTE COUNT / LYMPHOCYTE / MEAN CORPUSCULAR HEMOGLOBIN / MEAN CORPUSCULAR HEMOGLOBIN CONCENTRATION / MEAN CORPUSCULAR VOLUME / MONOCYTE / NEUTROPHIL / NUCLEATED RED BLOOD CELLS / PLATELET COUNT: tissue Blood
[1] = 72 h, dose 0.24 mg/Kg, dose level Low, time 3 day
[2] = 72 h, dose 2.5 mg/Kg, dose level High, time 3 day
[3] = 120 h, dose 0.24 mg/Kg, dose level Low, time 5 day
[4] = 120 h, dose 2.5 mg/Kg, dose level High, time 5 day

CC[C@@]1(O)C(=O)OCc2c1cc1n(c2=O)Cc2cc3ccccc3nc2-1 [CAMPTOTHECIN]
ALANINE AMINOTRANSFERASE [1]: 60 u/L | ALBUMIN [1]: 4.3 G/DL | ALKALINE PHOSPHATASE [1]: 408 u/L | ASPARTATE AMINOTRANSFERASE [1]: 104.67 u/L | BLOOD UREA NITROGEN [1]: 12.67 mg/dL | CARBON DIOXIDE [1]: 33.33 mmol/L | CHLORIDE [1]: 101.33 MEQ/L | CHOLESTEROL [1]: 75 mg/dL | CREATINE PHOSPHOKINASE [1]: 727.67 u/L | CREATININE [1]: 0.15 mg/dL | GLUCOSE [1]: 138.33 mg/dL | LACTATE DEHYDROGENASE [1]: 388 u/L | LIPASE [1]: 11 u/L | PHOSPHORUS [1]: 11.93 mg/dL | POTASSIUM [1]: 6.3 MEQ/L | SODIUM [1]: 145.33 MEQ/L | TOTAL BILIRUBIN [1]: 0.17 mg/dL | TOTAL PROTEIN [1]: 5.93 G/DL | URIC ACID [1]: 1.33 mg/dL | ALANINE AMINOTRANSFERASE [2]: 37.33 u/L | ALBUMIN [2]: 4.2 G/DL | ALKALINE PHOSPHATASE [2]: 430.33 u/L | ASPARTATE AMINOTRANSFERASE [2]: 79.33 u/L | BLOOD UREA NITROGEN [2]: 13 mg/dL | CARBON DIOXIDE [2]: 33 mmol/L | CHLORIDE [2]: 101.33 MEQ/L | CHOLESTEROL [2]: 73.67 mg/dL | CREATINE PHOSPHOKINASE [2]: 318.33 u/L | CREATININE [2]: 0.16 mg/dL | GLUCOSE [2]: 153.33 mg/dL | LACTATE DEHYDROGENASE [2]: 136.33 u/L | LIPASE [2]: 10.33 u/L | PHOSPHORUS [2]: 10.83 mg/dL | POTASSIUM [2]: 5.76 MEQ/L | SODIUM [2]: 142.73 MEQ/L | TOTAL BILIRUBIN [2]: 0.17 mg/dL | TOTAL PROTEIN [2]: 6.1 G/DL | URIC ACID [2]: 1.63 mg/dL | ABSOLUTE BASOPHIL [3]: 0 CELLS/uL | ABSOLUTE EOSINOPHIL [3]: 45.33 CELLS/uL | ABSOLUTE LYMPHOCYTE [3]: 11856.67 CELLS/uL | ABSOLUTE MONOCYTE [3]: 131.67 CELLS/uL | ABSOLUTE SEGMENTED NEUTROPHIL [3]: 1233 CELLS/uL | BASOPHIL [3]: 0% | EOSINOPHIL [3]: 0.33% | ERYTHROCYTE COUNT [3]: 5.71 x10E6/uL | HEMATOCRIT [3]: 35.9% | HEMOGLOBIN [3]: 14.03 G/DL | LEUKOCYTE COUNT [3]: 13.27 x10E3/uL | LYMPHOCYTE [3]: 89.33% | MEAN CORPUSCULAR HEMOGLOBIN [3]: 24.57 pg | MEAN CORPUSCULAR HEMOGLOBIN CONCENTRATION [3]: 39.07 G/DL | MEAN CORPUSCULAR VOLUME [3]: 62.87 fL | MONOCYTE [3]: 1% | NEUTROPHIL [3]: 9.33% | NUCLEATED RED BLOOD CELLS [3]: 0 /100WBC | PLATELET COUNT [3]: 1215 x10E3/uL | ABSOLUTE BASOPHIL [4]: 0 CELLS/uL | ABSOLUTE EOSINOPHIL [4]: 0 CELLS/uL | ABSOLUTE LYMPHOCYTE [4]: 7405.33 CELLS/uL | ABSOLUTE MONOCYTE [4]: 102.67 CELLS/uL | ABSOLUTE SEGMENTED NEUTROPHIL [4]: 225.33 CELLS/uL | BASOPHIL [4]: 0% | EOSINOPHIL [4]: 0% | ERYTHROCYTE COUNT [4]: 5.35 x10E6/uL | HEMATOCRIT [4]: 31.67% | HEMOGLOBIN [4]: 12.13 G/DL | LEUKOCYTE COUNT [4]: 7.73 x10E3/uL | LYMPHOCYTE [4]: 95.67% | MEAN CORPUSCULAR HEMOGLOBIN [4]: 22.77 pg | MEAN CORPUSCULAR HEMOGLOBIN CONCENTRATION [4]: 38.33 G/DL | MEAN CORPUSCULAR VOLUME [4]: 59.3 fL | MONOCYTE [4]: 1.33% | NEUTROPHIL [4]: 3% | NUCLEATED RED BLOOD CELLS [4]: 0 /100WBC | PLATELET COUNT [4]: 1318.33 x10E3/uL | ALANINE AMINOTRANSFERASE [3]: 43.33 u/L | ALBUMIN [3]: 4.03 G/DL | ALKALINE PHOSPHATASE [3]: 352 u/L | ASPARTATE AMINOTRANSFERASE [3]: 70 u/L | BLOOD UREA NITROGEN [3]: 14.67 mg/dL | CARBON DIOXIDE [3]: 29.33 mmol/L | CHLORIDE [3]: 102 MEQ/L | CHOLESTEROL [3]: 64.33 mg/dL | CREATINE PHOSPHOKINASE [3]: 241.67 u/L | CREATININE [3]: 0.18 mg/dL | GLUCOSE [3]: 201.67 mg/dL | LACTATE DEHYDROGENASE [3]: 147.33 u/L | LIPASE [3]: 10.33 u/L | PHOSPHORUS [3]: 11.03 mg/dL | POTASSIUM [3]: 5.31 MEQ/L | SODIUM [3]: 141.3 MEQ/L | TOTAL BILIRUBIN [3]: 0.2 mg/dL | TOTAL PROTEIN [3]: 5.93 G/DL | URIC ACID [3]: 1.33 mg/dL | ALANINE AMINOTRANSFERASE [4]: 42.67 u/L | ALBUMIN [4]: 4.03 G/DL | ALKALINE PHOSPHATASE [4]: 247 u/L | ASPARTATE AMINOTRANSFERASE [4]: 101 u/L | BLOOD UREA NITROGEN [4]: 17 mg/dL | CARBON DIOXIDE [4]: 22.33 mmol/L | CHLORIDE [4]: 103.33 MEQ/L | CHOLESTEROL [4]: 56 mg/dL | CREATINE PHOSPHOKINASE [4]: 674.67 u/L | CREATININE [4]: 0.2 mg/dL | GLUCOSE [4]: 184 mg/dL | LACTATE DEHYDROGENASE [4]: 581 u/L | LIPASE [4]: 10.33 u/L | PHOSPHORUS [4]: 12.4 mg/dL | POTASSIUM [4]: 6.08 MEQ/L | SODIUM [4]: 142.1 MEQ/L | TOTAL BILIRUBIN [4]: 0.13 mg/dL | TOTAL PROTEIN [4]: 6.03 G/DL | URIC ACID [4]: 1.8 mg/dL
